Reference: PubChem BioAssay AID248 (DTP/NCI, 2004)
Inconclusive results and toxic doses are left out. No stated cut-off is given here; in the data, active means T/C of 150% or more; inactive means T/C below 125%.

Tested on: L1210 leukemia ip in BDF1 mice, survival T/C
Experiment: NCI In Vivo Anticancer Drug Screen. Data for tumor model L1210 Leukemia (intraperitoneal) in B6D2F1 (BDF1) mice
Conditions: endpoint: mean survival time, higher = longer survival
Method in brief: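 Read-out is survival time, reported as the treated-group measurement over the vehicle-control measurement.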

[1] = dose: 100.0 mg/kg/injection, schedule: Q01DX009 (ip), vehicle: saline with Tween-80
[2] = dose: 200.0 mg/kg/injection, schedule: Q01DX009 (ip), vehicle: saline with Tween-80
[3] = dose: 400.0 mg/kg/injection, schedule: Q01DX009 (ip), vehicle: saline with Tween-80
[4] = dose: 100.0 mg/kg/injection, schedule: Q04DX003 (ip), vehicle: saline with Tween-80
[5] = dose: 200.0 mg/kg/injection, schedule: Q04DX003 (ip), vehicle: saline with Tween-80
[6] = dose: 400.0 mg/kg/injection, schedule: Q04DX003 (ip), vehicle: saline with Tween-80

Measured: T/C

Cn1cccc1C=O
inactive: [1] 102 % of control | [2] 100 % of control | [3] 97 % of control

CC(c1ccccc1)C(C)(C#N)c1ccccc1 (stereo not given)
inactive: dose: 50.0 mg/kg/injection, schedule: Q01DX001 (ip), vehicle: saline 97 % of control | dose: 100.0 mg/kg/injection, schedule: Q01DX001 (ip), vehicle: saline 100 % of control | dose: 200.0 mg/kg/injection, schedule: Q01DX001 (ip), vehicle: saline 100 % of control | dose: 400.0 mg/kg/injection, schedule: Q01DX001 (ip), vehicle: saline 103 % of control

CC1(C)CC(C(=O)c2ccccc2)C(=O)c2ccccc21 (stereo not given)
inactive: dose: 100.0 mg/kg/injection, schedule: Q01DX001 (ip), vehicle: Klucel (hydroxypropylcellulose) (HPC) 105 % of control | dose: 200.0 mg/kg/injection, schedule: Q01DX001 (ip), vehicle: Klucel (hydroxypropylcellulose) (HPC) 97 % of control | dose: 400.0 mg/kg/injection, schedule: Q01DX001 (ip), vehicle: Klucel (hydroxypropylcellulose) (HPC) 86 % of control

COc1cccc(/C=C/C(=O)c2ccc(Cl)cc2)c1OC
inactive: [1] 101 % of control | [4] 96 % of control | [2] 88 % of control | [5] 91 % of control | [3] 87 % of control | [6] 90 % of control

Cc1cccc2nc(-c3ccccc3)ccc12
inactive: dose: 6.0 mg/kg/injection, schedule: Q01DX009 (ip), vehicle: other 100 % of control | dose: 12.0 mg/kg/injection, schedule: Q01DX009 (ip), vehicle: other 92 % of control | dose: 12.0 mg/kg/injection, schedule: Q04DX003 (ip), vehicle: saline 92 % of control | dose: 25.0 mg/kg/injection, schedule: Q01DX009 (ip), vehicle: other 94 % of control | dose: 25.0 mg/kg/injection, schedule: Q04DX003 (ip), vehicle: saline 98 % of control

O=C1Cc2cccc3c2C(C1)CN3C(=O)c1ccccc1 (stereo not given)
inactive: [1] 90 % of control | [4] 100 % of control | [2] 88 % of control | [5] 94 % of control | [3] 97 % of control | [6] 95 % of control

NC(=O)NC(=O)/C=C\C(=O)O
inactive: dose: 50.0 mg/kg/injection, schedule: Q01DX009 (ip), vehicle: Klucel (hydroxypropylcellulose) (HPC) 93 % of control | dose: 100.0 mg/kg/injection, schedule: Q01DX009 (ip), vehicle: Klucel (hydroxypropylcellulose) (HPC) 98 % of control | dose: 200.0 mg/kg/injection, schedule: Q01DX009 (ip), vehicle: Klucel (hydroxypropylcellulose) (HPC) 91 % of control
